{"source": "patent US8815882B2", "about": "“Pyrazole aminopyrimidine derivatives as LRRK2 modulators” (Genentech, Inc., priority 2010, dated 2014)", "biological_target": "T1, LRRK2 (Homo sapiens, UniProt Q5S007, G2019S)", "T1 construct": "purchased Invitrogen PV4882 (lot 567054A)", "T1 sequence (Q5S007 whole entry G2019S)": "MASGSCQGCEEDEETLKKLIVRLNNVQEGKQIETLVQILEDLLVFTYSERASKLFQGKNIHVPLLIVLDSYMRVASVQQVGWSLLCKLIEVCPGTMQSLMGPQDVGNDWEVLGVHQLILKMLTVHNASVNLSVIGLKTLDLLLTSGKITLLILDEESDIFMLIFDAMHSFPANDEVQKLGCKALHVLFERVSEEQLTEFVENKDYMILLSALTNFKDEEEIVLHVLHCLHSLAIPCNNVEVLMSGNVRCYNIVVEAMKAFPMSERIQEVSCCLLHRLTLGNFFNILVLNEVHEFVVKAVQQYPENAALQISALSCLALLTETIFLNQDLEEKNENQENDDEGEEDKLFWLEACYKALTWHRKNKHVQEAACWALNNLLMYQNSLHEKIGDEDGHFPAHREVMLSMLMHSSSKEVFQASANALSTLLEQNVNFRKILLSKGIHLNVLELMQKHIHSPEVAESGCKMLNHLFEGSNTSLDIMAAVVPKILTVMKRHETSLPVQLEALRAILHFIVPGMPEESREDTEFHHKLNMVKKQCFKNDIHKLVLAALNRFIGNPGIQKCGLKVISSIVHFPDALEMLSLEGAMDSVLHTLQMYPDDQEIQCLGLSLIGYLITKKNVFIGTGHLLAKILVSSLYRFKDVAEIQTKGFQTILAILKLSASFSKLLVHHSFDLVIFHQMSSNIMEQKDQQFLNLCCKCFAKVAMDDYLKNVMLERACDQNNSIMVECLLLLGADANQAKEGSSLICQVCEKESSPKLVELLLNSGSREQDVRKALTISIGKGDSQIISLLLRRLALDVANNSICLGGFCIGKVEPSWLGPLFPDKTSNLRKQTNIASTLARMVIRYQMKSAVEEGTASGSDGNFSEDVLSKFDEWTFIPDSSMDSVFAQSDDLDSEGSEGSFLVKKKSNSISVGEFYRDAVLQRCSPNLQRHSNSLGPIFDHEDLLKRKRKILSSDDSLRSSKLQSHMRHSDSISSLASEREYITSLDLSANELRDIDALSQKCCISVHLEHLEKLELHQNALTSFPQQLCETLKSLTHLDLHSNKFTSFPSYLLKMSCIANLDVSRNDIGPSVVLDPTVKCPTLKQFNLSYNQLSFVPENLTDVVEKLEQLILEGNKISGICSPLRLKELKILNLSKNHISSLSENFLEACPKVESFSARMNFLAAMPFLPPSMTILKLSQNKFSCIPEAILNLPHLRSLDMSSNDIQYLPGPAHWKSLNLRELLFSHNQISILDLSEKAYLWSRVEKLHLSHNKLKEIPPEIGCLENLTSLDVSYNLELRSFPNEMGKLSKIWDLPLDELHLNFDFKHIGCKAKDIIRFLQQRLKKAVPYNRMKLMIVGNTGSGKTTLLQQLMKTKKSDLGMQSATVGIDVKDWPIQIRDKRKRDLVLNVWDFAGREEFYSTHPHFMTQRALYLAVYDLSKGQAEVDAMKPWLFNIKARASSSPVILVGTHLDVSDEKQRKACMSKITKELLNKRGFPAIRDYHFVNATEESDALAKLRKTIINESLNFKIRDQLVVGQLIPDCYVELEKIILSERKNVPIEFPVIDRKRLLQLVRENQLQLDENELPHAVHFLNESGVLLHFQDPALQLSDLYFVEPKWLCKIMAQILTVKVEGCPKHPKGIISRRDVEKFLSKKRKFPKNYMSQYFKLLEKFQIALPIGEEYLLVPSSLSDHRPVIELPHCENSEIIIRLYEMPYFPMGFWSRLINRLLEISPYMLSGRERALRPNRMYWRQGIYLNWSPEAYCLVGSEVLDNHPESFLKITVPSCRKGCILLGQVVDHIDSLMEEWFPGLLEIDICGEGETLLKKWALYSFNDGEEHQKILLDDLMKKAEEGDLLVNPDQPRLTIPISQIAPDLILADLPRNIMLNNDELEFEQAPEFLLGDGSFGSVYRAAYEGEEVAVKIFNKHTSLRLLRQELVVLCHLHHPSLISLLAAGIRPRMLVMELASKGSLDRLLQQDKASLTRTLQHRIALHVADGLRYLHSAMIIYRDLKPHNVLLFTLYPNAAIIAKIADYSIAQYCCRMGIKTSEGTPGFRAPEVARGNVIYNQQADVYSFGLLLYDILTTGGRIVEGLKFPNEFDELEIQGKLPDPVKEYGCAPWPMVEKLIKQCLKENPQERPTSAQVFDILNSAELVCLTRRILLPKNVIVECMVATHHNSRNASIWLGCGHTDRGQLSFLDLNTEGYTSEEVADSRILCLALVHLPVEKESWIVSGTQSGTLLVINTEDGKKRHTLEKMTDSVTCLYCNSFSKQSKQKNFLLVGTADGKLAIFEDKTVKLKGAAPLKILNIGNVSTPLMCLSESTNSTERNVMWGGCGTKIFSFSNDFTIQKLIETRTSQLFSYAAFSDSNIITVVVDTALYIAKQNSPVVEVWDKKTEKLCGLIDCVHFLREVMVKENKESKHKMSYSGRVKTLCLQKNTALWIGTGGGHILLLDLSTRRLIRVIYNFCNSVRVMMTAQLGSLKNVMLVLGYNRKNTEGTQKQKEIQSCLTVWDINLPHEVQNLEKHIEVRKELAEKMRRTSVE", "assay": "In Vitro LRRK2 Assay (LabChip 3000, fluorescently-labeled peptide substrate, ATP)", "format": "biochemical", "how_it_was_run": "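Read-out was LabChip capillary electrophoresis, resolving phospho- from non-phospho-peptide by fluorescence intensity. The kinase reaction combined enzyme, ATP, test compound and labeled peptide (4 μM working dilution) for 2 h in darkness before stop solution. Values were reported as Ki, from a tight-binding model with Et, S and Km, or as IC50 or percent inhibition.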", "key": {"[1]": {"details": "Table 10, LRRK2 Ki (micromolar), read-out: LRRK2 Ki (KI)"}, "[2]": {"details": "read-out: LRRK2 Ki (KI), Table 8"}, "[3]": {"details": "read-out: LRRK2 Ki (KI), Table 7"}, "[4]": {"details": "Table 9, LRRK2 Ki (micromolar), read-out: LRRK2 Ki (KI)"}}, "note": "Like-named read-outs stand apart in the source and are kept apart here."}
{"smiles": "CNc1nc(Nc2cnn(C3(C#N)CC3)c2Cl)ncc1C(F)(F)F", "note": "[Example 422, 1-(5-chloro-4-(4-(methylamino)-5-(trifluoromethyl)pyrimidin-2-ylamino)-1H-pyrazol-1-yl)cyclopropane-carbonitrile]", "values": [{"measurement": "Ki", "setting": "[1]", "value": 2.3, "unit": "nM"}]}
{"smiles": "CCn1ncc(Nc2ncc(C(F)(F)F)c(NC)n2)c1Cl", "note": "[Example 139, N2-(5-chloro-1-ethyl-1H-pyrazol-4-yl)-N4-methyl-5-(trifluoromethyl) pyrimidine-2,4-diamine]", "values": [{"measurement": "Ki", "setting": "[2]", "value": 2, "unit": "nM"}]}
{"smiles": "COc1nc(Nc2cnn(-c3ccccc3)c2C)ncc1C(F)(F)F", "note": "[Example 78, (4-Methoxy-5-trifluoromethyl-pyrimidin-2-yl)-(5-methyl-1-phenyl-1H-pyrazol-4-yl)-amine]", "values": [{"measurement": "Ki", "setting": "[3]", "value": 38.1, "unit": "nM"}]}
{"smiles": "CNc1nc(Nc2cn(C3CCC(F)(F)CC3)nc2C)ncc1C#N", "note": "[Example 392, 2-[1-(4,4-Difluoro-cyclohexyl)-3-methyl-1H-pyrazol-4-ylamino]-4-methylamino-pyrimidine-5-carbonitrile]", "values": [{"measurement": "Ki", "setting": "[4]", "value": 266, "unit": "nM"}]}
{"smiles": "CNc1nc(Nc2cnn([C@H](C)C#N)c2C)ncc1C(F)(F)F", "note": "[Example 439, (R)-2-[5-Methyl-4-(4-methylamino-5-trifluoromethyl-pyrimidin-2-ylamino)-pyrazol-1-yl]-propionitrile]", "values": [{"measurement": "Ki", "setting": "[1]", "value": 1.6, "unit": "nM"}]}
{"smiles": "CCNc1nc(Nc2cnn(C)c2C)ncc1C#N", "note": "[Example 385, 2-(1,5-Dimethyl-1H-pyrazol-4-ylamino)-4-ethylamino-pyrimidine-5-carbonitrile]", "values": [{"measurement": "Ki", "setting": "[4]", "value": 12.7, "unit": "nM"}]}
{"smiles": "CNc1nc(Nc2cn(C3CCC(=O)NC3)nc2C)ncc1C(F)(F)F", "note": "(centres unmarked) [Example 153, 5-(3-methyl-4-(4-(methylamino)-5-(trifluoromethyl)pyrimidin-2-ylamino)-1H-pyrazol-1-yl)piperidin-2-one]", "values": [{"measurement": "Ki", "setting": "[2]", "value": 9.7, "unit": "nM"}]}
{"smiles": "COc1nc(Nc2cc(C(C)C)nn2C)ncc1Cl", "note": "[Example 41, 5-Chloro-N-(3-isopropyl-1-methyl-1H-pyrazol-5-yl)-4-methoxy-pyrimidin-2-amine]", "values": [{"measurement": "Ki", "setting": "[3]", "value": 70, "unit": "nM"}]}
{"smiles": "CNc1nc(Nc2cn(C)nc2C)ncc1C#N", "note": "[Example 350, 2-(1,3-Dimethyl-1H-pyrazol-4-ylamino)-4-methylamino-pyrimidine-5-carbonitrile]", "values": [{"measurement": "Ki", "setting": "[4]", "value": 29, "unit": "nM"}]}
{"smiles": "CNc1nc(Nc2cnn(C3CCN(CC(F)(F)F)CC3)c2C)ncc1Br", "note": "[Example 93, 5-bromo-N4-methyl-N2-(5-methyl-1-(1-(2,2,2-trifluoroethyl)piperidin-4-yl)-1H-pyrazol-4-yl)pyrimidine-2,4-diamine]", "values": [{"measurement": "Ki", "setting": "[2]", "value": 1.4, "unit": "nM"}]}
{"smiles": "COCCn1ncc(Nc2ncc(Cl)c(OC)n2)c1C", "note": "[Example 20, 5-chloro-4-methoxy-N-(1-(2-methoxyethyl)-5-methyl-1H-pyrazol-4-yl)pyrimidin-2-amine]", "values": [{"measurement": "Ki", "setting": "[3]", "value": 19, "unit": "nM"}]}
{"smiles": "CCNc1nc(Nc2cn(C3COC3)nc2C)ncc1Cl", "note": "[Example 98, 5-chloro-N4-ethyl-N2-(3-methyl-1-(oxetan-3-yl)-1H-pyrazol-4-yl)pyrimidine-2,4-diamine]", "values": [{"measurement": "Ki", "setting": "[2]", "value": 3.1, "unit": "nM"}]}
{"smiles": "CNc1nc(Nc2cnn(-c3cc(F)cc(F)c3)c2C)ncc1C#N", "note": "[Example 390, 2-[1-(3,5-Difluoro-phenyl)-5-methyl-1H-pyrazol-4-ylamino]-4-methylamino-pyrimidine-5-carbonitrile]", "values": [{"measurement": "Ki", "setting": "[4]", "value": 241, "unit": "nM"}]}
{"smiles": "CNc1nc(Nc2cn(CC(F)(F)F)nc2C)ncc1Br", "note": "[Example 95, 5-bromo-N4-methyl-N2-(3-methyl-1-(2,2,2-trifluoroethyl)-1H-pyrazol-4-yl)pyrimidine-2,4-diamine]", "values": [{"measurement": "Ki", "setting": "[2]", "value": 1.2, "unit": "nM"}]}
{"smiles": "COc1nc(Nc2cnn(-c3ccc(S(C)(=O)=O)cc3)c2C)ncc1Cl", "note": "[Example 60, 5-chloro-4-methoxy-N-(5-methyl-1-(4-(methylsulfonyl)phenyl)-1H-pyrazol-4-yl)pyrimidin-2-amine]", "values": [{"measurement": "Ki", "setting": "[3]", "value": 15, "unit": "nM"}]}
{"smiles": "CNc1nc(Nc2cn(C3CCOC3)nc2C)ncc1C(F)(F)F", "note": "(centres unmarked) [Example 149, N4-methyl-N2-(3-methyl-1-(tetrahydrofuran-3-yl)-1H-pyrazol-4-yl)-5-(trifluoromethyl) pyrimidine-2,4-diamine]", "values": [{"measurement": "Ki", "setting": "[2]", "value": 6.8, "unit": "nM"}]}
{"smiles": "CNc1nc(Nc2cn(CC(=O)N(C)C)nc2C)ncc1C(F)(F)F", "note": "[Example 396, N,N-dimethyl-2-(3-methyl-4-(4-(methylamino)-5-(trifluoromethyl)pyrimidin-2-ylamino)-1H-pyrazol-1-yl)acetamide]", "values": [{"measurement": "Ki", "setting": "[1]", "value": 4, "unit": "nM"}]}
{"smiles": "CNc1nc(Nc2cn([C@H](C)C(=O)N3CCCC3)nc2C)ncc1C(F)(F)F", "note": "[Example 403, (R)-2-(3-methyl-4-(4-(methylamino)-5-(trifluoromethyl)pyrimidin-2-ylamino)-1H-pyrazol-1-yl)-1-(pyrrolidin-l-yl)propan-1-one]", "values": [{"measurement": "Ki", "setting": "[1]", "value": 16, "unit": "nM"}]}
{"smiles": "CNc1nc(Nc2cc(C(C)C)nn2C)ncc1Cl", "note": "[Example 42, 5-Chloro-N^2-(5-isopropyl-2-methyl-2H-pyrazol-3-yl)-N^4-methyl-pyrimidine-2,4-diamine]", "values": [{"measurement": "Ki", "setting": "[3]", "value": 16, "unit": "nM"}]}
{"smiles": "CNc1nc(Nc2cn(C3CCN(CCF)CC3)nc2C)ncc1C(F)(F)F", "note": "[Example 285, N2-{1-[1-(2-Fluoro-ethyl)-piperidin-4-yl]-3-methyl-1H-pyrazol-4-yl}-N4-methyl-5-trifluoromethyl-pyrimidine-2,4-diamine]", "values": [{"measurement": "Ki", "setting": "[2]", "value": 28.3, "unit": "nM"}]}
{"smiles": "CNc1nc(Nc2cn(S(C)(=O)=O)nc2C)ncc1C(F)(F)F", "note": "[Example 102, N4-methyl-N2-(3-methyl-1-(methylsulfonyl)-1H-pyrazol-4-yl)-5-(trifluoromethyl) pyrimidine-2,4-diamine]", "values": [{"measurement": "Ki", "setting": "[2]", "value": 2.9, "unit": "nM"}]}
{"smiles": "Cc1c(Nc2ncc(C(F)(F)F)c(NCC3CCOCC3)n2)cnn1C", "note": "[Example 232, N2-(1,5-dimethyl-1H-pyrazol-4-yl)-N4-((tetrahydro-2H-pyran-4-yl)methyl)-5-(trifluoromethyl) pyrimidine-2,4-diamine]", "values": [{"measurement": "Ki", "setting": "[2]", "value": 9.6, "unit": "nM"}]}
{"smiles": "CCNc1nc(Nc2cn(C3COC3)nc2C)ncc1C#N", "note": "[Example 373, 4-(ethylamino)-2-(3-methyl-1-(oxetan-3-yl)-1H-pyrazol-4-ylamino) pyrimidine-5-carbonitrile]", "values": [{"measurement": "Ki", "setting": "[4]", "value": 22.8, "unit": "nM"}]}
{"smiles": "COc1nc(Nc2cnn(-c3ccc(C#N)cc3)c2C)ncc1Cl", "note": "[Example 83, 4-[4-(5-Chloro-4-methoxy-pyrimidin-2-ylamino)-5-methyl-pyrazol-1-yl]-benzonitrile]", "values": [{"measurement": "Ki", "setting": "[3]", "value": 9, "unit": "nM"}]}
{"smiles": "CNc1nc(Nc2ccnn2C)ncc1Br", "note": "[Example 99, 5-bromo-N4-methyl-N2-(1-methyl-1H-pyrazol-5-yl)pyrimidine-2,4-diamine]", "values": [{"measurement": "Ki", "setting": "[2]", "value": 5.4, "unit": "nM"}]}
{"smiles": "CNc1nc(Nc2cn([C@H]3CCN(C4COC4)C3)nc2C)ncc1C(F)(F)F", "note": "[Example 276, N4-Methyl-N2-[3-methyl-1-((S)-1-oxetan-3-yl-pyrrolidin-3-yl)-1H-pyrazol-4-yl]-5-trifluoromethyl-pyrimidine-2,4-diamine]", "values": [{"measurement": "Ki", "setting": "[2]", "value": 3.9, "unit": "nM"}]}
{"smiles": "CNc1nc(Nc2cn(CC3CC3)nc2C)ncc1C#N", "note": "[Example 380, 2-(1-(cyclopropylmethyl)-3-methyl-1H-ylamino)-4-(methylamino) pyrimidine-5-carbonitrile]", "values": [{"measurement": "Ki", "setting": "[4]", "value": 45, "unit": "nM"}]}
{"smiles": "CNc1nc(Nc2cn(S(=O)(=O)C(C)C)nc2C)ncc1C(F)(F)F", "note": "[Example 217, N2-(1-(isopropylsulfonyl)-3-methyl-1H-pyrazol-4-yl)-N4-methyl-5-(trifluoromethyl) pyrimidine-2,4-diamine]", "values": [{"measurement": "Ki", "setting": "[2]", "value": 9.9, "unit": "nM"}]}
{"smiles": "CNc1nc(Nc2cnn(C(C)(C)C(=O)OC)c2C)ncc1C(F)(F)F", "note": "[Example 409, methyl 2-methyl-2-(5-methyl-4-(4-(methylamino)-5-(trifluoromethyl)pyrimidin-2-ylamino)-1H-pyrazol-1-yl)propanoate]", "values": [{"measurement": "Ki", "setting": "[1]", "value": 7.6, "unit": "nM"}]}
